In data set [1] the test system is poly(I:C). Nature of the data set: Fluorescence polarization, peptide binding to poly(I:C). On the procedure:
Peptide binding to poly(I:C) was analyzed by monitoring fluorescence polarization using the Synergy H1 microplate reader (BioTek). Fluorescein-labeled LL-37 was titrated to a 100 μL solution containing poly(I:C) and phosphate buffers at different pHs. Interactions between LL-37 and other peptides were analyzed using LL-37 labeled at the N-terminus with fluorescein (0.1 μM), and peptides were titrated from 1 nM to 1000 nM in phosphate buffer at pH 7.0. Interaction between poly(I:C) and different peptides was determined by titrating fluorescein-labeled poly(I:C) (0.1 μM) with peptides added to final concentrations of 10 to 500 nM in phosphate buffer at pH 7.4. All polarization assays were performed in triplicate.
LL-37 accompanies dsRNA to endosomes containing TLR3. However, it is unknown whether LL-37 will release the dsRNA in endosomes. Johansson et al. (1998) have previously determined that a neutral pH is required for the activity of LL-37. We seek to determine whether LL-37 binding to dsRNA can be affected by pH.
On the technique in general: Fluorescence polarisation rises when a labelled molecule tumbles more slowly, as on binding a larger partner.

Data set [2] relates to TLR3. Nature of the data set: Confocal microscopy, co-localization with TLR3 in BEAS-2B cells. The settings on record: with poly(I:C). The format is cell-based, human. The method, then:
Cells were grown on poly-L-lysine coated coverslips to 60% confluency. After 1 h incubation with fluorescently-labeled peptides in the absence or presence of poly(I:C), the cells were washed with PBS and fixed with 4% paraformaldehyde for 15 min at room temperature. The cells were again washed with PBS and mounted on glass slides with anti-fade mounting medium and DAPI (Life Technology), then dried overnight in the dark. Micrographs were acquired with a Leica TCS SP5 confocal inverted-base microscope with a 63× oil objective. Images were analyzed by Leica LAS AF and Image J software. Colocalization of fluorophores was quantified using the Image J plug-in tool JACoP (16).
We examined whether it could prevent the trafficking of LL-37/poly(I:C) to endosomes that harbor TLR3. Confocal microscopy was used to examine the effect of LL-29 on the colocalization of LL-37/poly(I:C) with TLR3 in BEAS-2B cells.

The nature of data set [3]: in vitro. The settings on record: human, Half-life of LL-37 in cells. Type of data set: cell-based. The method, then: Acidification of endosomes can activate cathepsins that can cleave TLR3, 7, and 9 and increase signaling. We examined whether LL-37 would be subject to proteolysis, possibly by cathepsins. BEAS-2B cells were treated with LL-37 in the absence or presence of poly(I:C) for 15 min, then washed with phosphate-buffered saline and incubated with fresh medium. The cells were harvested over time, lysed and subjected to Western blot analysis. LL-37 accumulation decreased over time, with an estimated half-life of 1 h (FIG. 4A, 4B). Cells treated with ammonium chloride or the cathepsin inhibitor Z-FA-FMK had half-lives in excess of 12 h (FIG. 4A, 4B).

Regarding “fLL-37: 5′ carboxyfluorescein coupled to the N-terminus of LL-37 [reference compound]”, the “Binding to poly(I:C)/dsRNA in fluorescent polarization assay, in words” value in data set [1] is listed as “polarization increased as a function of poly(I:C) concentration”. Also, the “Co-localization of peptide with TLR3, in words” value in data set [2] is “found to colocalize with TLR3”.

In the case of `CC[C@H](C)[C@H](NC(=O)[C@H](CCCCN)NC(=O)[C@H](CCC(=O)O)NC(=O)[C@H](CCCCN)NC(=O)[C@H](CO)NC(=O)[C@H](CCCCN)NC(=O)[C@H](CCCNC(=N)N)NC(=O)[C@H](Cc1ccccc1)NC(=O)[C@H](Cc1ccccc1)NC(=O)[C@H](CC(=O)O)NC(=O)CNC(=O)[C@H](CC(C)C)NC(=O)[C@@H](N)CC(C)C)C(=O)NCC(=O)N[C@@H](CCCCN)C(=O)N[C@@H](CCC(=O)O)C(=O)N[C@@H](Cc1ccccc1)C(=O)N[C@@H](CCCCN)C(=O)N[C@@H](CCCNC(=N)N)C(=O)N[C@H](C(=O)N[C@H](C(=O)N[C@@H](CCC(N)=O)C(=O)N[C@@H](CCCNC(=N)N)C(=O)N[C@H](C(=O)N[C@@H](CCCCN)C(=O)N[C@@H](CC(=O)O)C(=O)N[C@@H](Cc1ccccc1)C(=O)N[C@@H](CC(C)C)C(=O)N[C@@H](CCCNC(=N)N)C(=O)N[C@@H](CC(N)=O)C(=O)N[C@@H](CC(C)C)C(=O)N[C@H](C(=O)N1CCC[C@H]1C(=O)N[C@@H](CCCNC(=N)N)C(=O)N[C@H](C(=O)N[C@@H](CCC(=O)O)C(=O)N[C@@H](CO)C(=O)O)[C@@H](C)O)C(C)C)[C@@H](C)CC)C(C)C)[C@@H](C)CC` [LL-37], the half-life in data set [3] and in data set [3] (cells or culture medium) was roughly 1 h each time.

What is called half-life is how long it takes for the measured level to halve.
